Laboratory results reported in the supplement of paper PMC11061612.

Legend:
[1] = system: HT-29 (Colorectal Carcinoma); test: combination Emax (second highest fraction inhibited in the dose matrix, 72 h); higher = more inhibition; extreme values may be limits of the assay
Summary of the method: (§1)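 Cell lines grown in DMEM/F12 or RPMI with 10% FBS were plated in 1536-well plates and held 24 hours at 37°C, 5% CO2 before 72 hours of exposure to two-drug dose matrices, with DMSO typically at 0.2%. CellTiter-Glo 2.0 luminescence gave viability, which was converted to inhibition. Vehicle wells were set to 0 and blank wells to 1. Combination Emax is the second-highest inhibition in the matrix, and Bliss excess is the observed combination effect minus the expected EA + EB − EA·EB, where EA and EB are the single-agent effects.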

[2] = system: KATOIII (Gastric Carcinoma); test: as above
Summary of the method: as §1

ES7 (Ewing's Sarcoma) = test: as above
Summary of the method: as §1

[3] = system: NALM-6 (B-Lymphoblastic Leukemia); test: as above
Summary of the method: as §1

[4] = system: SW1088 (Low Grade Glioma); test: as above
Summary of the method: as §1

[5] = system: NCI-H211 (Small Cell Lung Carcinoma); test: as above
Summary of the method: as §1

[6] = system: SW1990 (Pancreatic Carcinoma); test: as above
Summary of the method: as §1

[7] = system: LS-513 (Colorectal Carcinoma); test: Bliss excess, mean over the matrix (fraction); higher = more synergy
Summary of the method: as §1

SK-N-FI (Neuroblastoma) = test: as above
Summary of the method: as §1

[8] = system: KATOIII (Gastric Carcinoma); test: as above
Summary of the method: as §1

[9] = system: OCI-AML2 (Acute Myeloid Leukemia); test: as above
Summary of the method: as §1

[10] = system: NALM-6 (B-Lymphoblastic Leukemia); test: as above
Summary of the method: as §1

[11] = system: NCI-H1299 (Non-Small Cell Lung Carcinoma); test: as above
Summary of the method: as §1

[12] = system: NCI-H211 (Small Cell Lung Carcinoma); test: as above
Summary of the method: as §1

[13] = system: SW1783 (Low Grade Glioma); test: as above
Summary of the method: as §1

[14] = system: COR-L95 (Small Cell Lung Carcinoma); test: as above
Summary of the method: as §1

SN12C (Kidney Carcinoma) = test: as above
Summary of the method: as §1

[15] = system: MDA-MB-157 (Breast Carcinoma); test: as above
Summary of the method: as §1

[16] = system: SW1990 (Pancreatic Carcinoma); test: as above
Summary of the method: as §1

[17] = system: U-266 (Plasma Cell Myeloma); test: as above
Summary of the method: as §1
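Throughout, for Bliss excess, mean over the matrix: after 72 h of two-drug dosing.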

## Cc1c2c(nn1C)CSCc1cc(n(C)n1)CSc1cc(c3ccccc3c1)OCCCc1c(C(=O)O)n(C)c3c-2c(Cl)ccc13 [AZD5991] + CS(=O)(=O)CCNCc1ccc(-c2ccc3ncnc(Nc4ccc(OCc5cccc(F)c5)c(Cl)c4)c3c2)o1 [Lapatinib] (first compound max 1 µM, 7x7, partner max 10 µM)
[1]
  combination Emax: 0.783
[2]
  combination Emax: 0.415
ES7 (Ewing's Sarcoma)
  combination Emax: 0.737
[3]
  combination Emax: 0.761
[4]
  combination Emax: 0.36
[5]
  combination Emax: 0.979
[6]
  combination Emax: 0.295
[7]
  Bliss excess: 0.0305
SK-N-FI (Neuroblastoma)
  Bliss excess: -0.0808
[8]
  Bliss excess: -0.0787
[9]
  Bliss excess: 0.0415
[10]
  Bliss excess: -0.101
[11]
  Bliss excess: -0.0243
[12]
  Bliss excess: -0.0118
[13]
  Bliss excess: -0.0106
[14]
  Bliss excess: -0.0199
SN12C (Kidney Carcinoma)
  Bliss excess: 0.0035
[15]
  Bliss excess: 0.0108
[16]
  Bliss excess: 0.0149
[17]
  Bliss excess: -0.0501

## Cc1c2c(nn1C)CSCc1cc(n(C)n1)CSc1cc(c3ccccc3c1)OCCCc1c(C(=O)O)n(C)c3c-2c(Cl)ccc13 [AZD5991] + Nc1ccn([C@@H]2O[C@H](CO)[C@@H](O)C2(F)F)c(=O)n1 [Gemcitabine] (first compound max 1 µM, 7x7, partner max 0.3 µM)
[1]
  combination Emax: 0.6
[2]
  combination Emax: 0.49
ES7 (Ewing's Sarcoma)
  combination Emax: 0.982
[3]
  combination Emax: 0.928
[4]
  combination Emax: 0.197
[5]
  combination Emax: 1
[6]
  combination Emax: 0.353
[7]
  Bliss excess: -0.102
SK-N-FI (Neuroblastoma)
  Bliss excess: 0.0074
[8]
  Bliss excess: 0.0444
[9]
  Bliss excess: 0.0516
[10]
  Bliss excess: -0.0245
[11]
  Bliss excess: 0.006
[12]
  Bliss excess: 0.0489
[13]
  Bliss excess: -0.0199
[14]
  Bliss excess: -0.0274
SN12C (Kidney Carcinoma)
  Bliss excess: -0.0232
[15]
  Bliss excess: -0.0145
[16]
  Bliss excess: 0.0278
[17]
  Bliss excess: 0.0379

## C[C@@H]1COCCN1c1cc(C2([S@](C)(=N)=O)CC2)nc(-c2ccnc3[nH]ccc23)n1 [AZD6738] + C1CC(C1)(C(=O)[O-])C(=O)[O-].N.N.[Pt+2] [Carboplatin] (first compound max 10 µM, 7x7, partner max 10 µM)
[1]
  combination Emax: 0.766
[2]
  combination Emax: 0.424
ES7 (Ewing's Sarcoma)
  combination Emax: 0.777
[3]
  combination Emax: 0.924
[4]
  combination Emax: 0.602
[5]
  combination Emax: 0.61
[6]
  combination Emax: 0.422
[7]
  Bliss excess: -0.0225
SK-N-FI (Neuroblastoma)
  Bliss excess: -0.049
[8]
  Bliss excess: -0.0879
[9]
  Bliss excess: -0.0318
[10]
  Bliss excess: -0.0122
[11]
  Bliss excess: -0.0401
[12]
  Bliss excess: -0.0292
[13]
  Bliss excess: -0.0337
[14]
  Bliss excess: -0.106
SN12C (Kidney Carcinoma)
  Bliss excess: -0.026
[15]
  Bliss excess: -0.0061
[16]
  Bliss excess: -0.0997
[17]
  Bliss excess: -0.0751

## C[C@@H]1COCCN1c1cc(C2([S@](C)(=N)=O)CC2)nc(-c2ccnc3[nH]ccc23)n1 [AZD6738] + Nc1ccn([C@@H]2O[C@H](CO)[C@@H](O)C2(F)F)c(=O)n1 [Gemcitabine] (first compound max 10 µM, 7x7, partner max 0.3 µM)
[1]
  combination Emax: 0.873
[2]
  combination Emax: 0.656
ES7 (Ewing's Sarcoma)
  combination Emax: 0.991
[3]
  combination Emax: 0.974
[4]
  combination Emax: 0.731
[5]
  combination Emax: 0.973
[6]
  combination Emax: 0.463
[7]
  Bliss excess: -0.0336
SK-N-FI (Neuroblastoma)
  Bliss excess: 0.0769
[8]
  Bliss excess: 0.0057
[9]
  Bliss excess: 0.0351
[10]
  Bliss excess: -0.0252
[11]
  Bliss excess: 0.0963
[12]
  Bliss excess: 0.0304
[13]
  Bliss excess: -0.0109
[14]
  Bliss excess: -0.0359
SN12C (Kidney Carcinoma)
  Bliss excess: 0.0577
[15]
  Bliss excess: 0.0295
[16]
  Bliss excess: -0.0028
[17]
  Bliss excess: 0.057

## Cc1cc2ncnn2cc1Nc1ncc2c(n1)n(C1CCOCC1)c(=O)n2C [AZD7648] + COc1cc([C@@H]2c3cc4c(cc3[C@@H](O[C@@H]3O[C@@H]5CO[C@@H](C)O[C@H]5[C@H](O)[C@H]3O)[C@H]3COC(=O)[C@H]23)OCO4)cc(OC)c1O [Etoposide] (first compound max 10 µM, 7x7, partner max 10 µM)
[1]
  combination Emax: 0.711
[2]
  combination Emax: 0.368
ES7 (Ewing's Sarcoma)
  combination Emax: 0.977
[3]
  combination Emax: 1
[4]
  combination Emax: 0.574
[5]
  combination Emax: 0.968
[6]
  combination Emax: 0.337
[7]
  Bliss excess: 0.111
SK-N-FI (Neuroblastoma)
  Bliss excess: -0.0258
[8]
  Bliss excess: -0.0224
[9]
  Bliss excess: 0.175
[10]
  Bliss excess: 0.0869
[11]
  Bliss excess: 0.113
[12]
  Bliss excess: 0.0313
[13]
  Bliss excess: 0.0614
[14]
  Bliss excess: 0.0315
SN12C (Kidney Carcinoma)
  Bliss excess: 0.0424
[15]
  Bliss excess: 0.0451
[16]
  Bliss excess: 0.0302
[17]
  Bliss excess: -0.0446

## C[C@@H](Nc1cc(F)cc(F)c1)c1cc(C(=O)N(C)C)cc2c(=O)cc(N3CCOCC3)oc12 [AZD8186] + C1CN(CCC1(C(=O)N[C@@H](CCO)C2=CC=C(C=C2)Cl)N)C3=NC=NC4=C3C=CN4 [AZD5363] (first compound max 10 µM, 7x7, partner max 10 µM)
[1]
  combination Emax: 0.449
[2]
  combination Emax: 0.0505
ES7 (Ewing's Sarcoma)
  combination Emax: 0.509
[3]
  combination Emax: 0.674
[4]
  combination Emax: 0.742
[5]
  combination Emax: 0.406
[6]
  combination Emax: 0.188
[7]
  Bliss excess: -0.0681
SK-N-FI (Neuroblastoma)
  Bliss excess: -0.0299
[8]
  Bliss excess: -0.0739
[9]
  Bliss excess: -0.0007
[10]
  Bliss excess: -0.0357
[11]
  Bliss excess: 0.0024
[12]
  Bliss excess: -0.0006
[13]
  Bliss excess: -0.0125
[14]
  Bliss excess: -0.0781
SN12C (Kidney Carcinoma)
  Bliss excess: -0.0471
[15]
  Bliss excess: 0.0227
[16]
  Bliss excess: -0.0436
[17]
  Bliss excess: -0.0427

## N#Cc1cnc(Nc2cc(NC[C@H]3CNCCO3)c(C(F)(F)F)cn2)cn1 [SRA737] + Nc1ccn([C@@H]2O[C@H](CO)[C@@H](O)C2(F)F)c(=O)n1 [Gemcitabine] (first compound max 10 µM, 7x7, partner max 0.3 µM)
[1]
  combination Emax: 0.853
[2]
  combination Emax: 0.557
ES7 (Ewing's Sarcoma)
  combination Emax: 0.989
[3]
  combination Emax: 0.954
[4]
  combination Emax: 0.626
[5]
  combination Emax: 0.977
[6]
  combination Emax: 0.505
[7]
  Bliss excess: -0.0189
SK-N-FI (Neuroblastoma)
  Bliss excess: 0.0476
[8]
  Bliss excess: -0.0794
[10]
  Bliss excess: -0.0673
[11]
  Bliss excess: 0.0831
[12]
  Bliss excess: 0.0372
[13]
  Bliss excess: 0.0091
[14]
  Bliss excess: -0.0067
SN12C (Kidney Carcinoma)
  Bliss excess: 0.0884
[15]
  Bliss excess: 0.0499
[16]
  Bliss excess: -0.0384
[17]
  Bliss excess: -0.0101
